Assays:
MOLT-4 cells = assay: CTG (CellTiter-Glo) cell viability assay, MOLT-4; assay type: cell-based; details: Homo sapiens, MOLT-4, 72 h, MOLT-4, 3 day; read-out: CTG Cell Viability Assay - MOLT-4 3 day: Average external-IC50
Experimental: (§1) Compound-mediated viability effect on MOLT-4 and Caki-2 was quantitatively determined using the CellTiter-Glo® Luminescent Cell Viability Assay kit from Promega (Catalog number G7570) following manufacturer's recommended procedures. Briefly, MOLT-4 and Caki-2 cells were seeded into 384 well plates (Grenier Bio-One, Catalog number 781080) with a density of 10,000 cells per well. Compounds were then added to the assay plate with final top concentration of 10 µM and 1:3 dilution series with total of 9 doses. The final DMSO concentration is normalized to 0.2%. The assay plates were incubated at 37° C. for 3 days under 5% CO2. Then the assay plate was equilibrated at room temperature for 10 minutes. To determine cell viability, 30 uL CellTiter Glo reagent was added to each well and the assay plate was centrifuged at 1000 rpm for 30 second, incubated at room temperature for 10 min, and analyzed by detecting the luminescence using a multimode plate reader (EnVision 2105, PerkinElmer). The data was then analyzed by software Prism 7.0 from GraphPad and the dose response curves are fit using a three-parameter logistic equation to calculate IC50.
(§2) The letter codes for MOLT-4 IC50 include: A (<0.1 μM); B (0.1-1.0 μM); C (>1.0-3.0 μM); and D (>3.0 μM). The letter codes for Caki-2 IC50 include: A (<5 μM); B (5-10 μM); C (>10-30.0 μM); and D (>30.0 μM).

Caki-2 cells = assay: CTG (CellTiter-Glo) cell viability assay, Caki-2; assay type: cell-based; details: Homo sapiens, CAKI-2, 72 h, Caki-2, 3-day; read-out: CTG Chempartner/PHA- Caki-2 3-day: Average external-IC50
Experimental: as §1, §2

| Compound | IC50 (MOLT-4 cells) [nM] | IC50 (Caki-2 cells) [nM] |
| --- | --- | --- |
| Cc1ncsc1-c1ccc([C@H](C)NC(=O)[C@@H]2C[C@@H](O)CN2C(=O)[C@@H](NC(=O)CCCCCC(=O)N2CCN(CC[C@H](CSc3ccccc3)Nc3ccc(S(=O)(=O)NC(=O)c4ccc(NC5CC(C)C5)cc4)cc3S(=O)(=O)C(F)(F)F)CC2)C(C)(C)C)cc1 (stereo partly shown) [I-44] | > 3000 | > 30000 |
| C#Cc1ccc(CNC(=O)[C@@H]2C[C@@H](O)CN2C(=O)[C@@H](NC(=O)C2(F)CC2)C(C)(C)C)c(OCCCCCCC(=O)N2CCN(CCCNc3ccc(S(=O)(=O)NC(=O)c4ccc(N5CCN(CC6=C(c7ccc(Cl)cc7)CC(C)(C)CC6)CC5)cc4Oc4cnc5[nH]ccc5c4)cc3S(=O)(=O)C(F)(F)F)CC2)c1 [I-104] | > 3000 | > 30000 |
| Cc1ncsc1-c1ccc([C@H](C)NC(=O)[C@@H]2C[C@@H](O)CN2C(=O)[C@@H](NC(=O)CCC(=O)N2CCN(CCCNc3ccc(S(=O)(=O)NC(=O)c4ccc(N5CCN(CC6=C(c7ccc(Cl)cc7)CC(C)(C)CC6)CC5)cc4Oc4cnc5[nH]ccc5c4)cc3S(=O)(=O)C(F)(F)F)CC2)C(C)(C)C)cc1 [I-79] | > 3000 | > 30000 |
| Cc1ncsc1-c1ccc([C@H](C)NC(=O)[C@@H]2C[C@@H](O)CN2C(=O)[C@@H](NC(=O)CCCCCC(=O)N2CCN(CCNc3ccc(S(=O)(=O)NC(=O)c4ccc(N5CCN(CC6=C(c7ccc(Cl)cc7)CC(C)(C)CC6)CC5)cc4Oc4cnc5[nH]ccc5c4)cc3S(=O)(=O)C(F)(F)F)CC2)C(C)(C)C)cc1 [I-97] | > 3000 | > 30000 |
| Cc1ncsc1-c1ccc([C@H](C)NC(=O)[C@@H]2C[C@@H](O)CN2C(=O)[C@@H](NC(=O)C2CCN(c3ccc(N(C)CCCNc4ccc(S(=O)(=O)NC(=O)c5ccc(N6CCN(CC7=C(c8ccc(Cl)cc8)CC(C)(C)CC7)CC6)cc5Oc5cnc6[nH]ccc6c5)cc4S(=O)(=O)C(F)(F)F)cc3)CC2)C(C)(C)C)cc1 [I-89] | > 3000 | > 30000 |
| Cc1ncsc1-c1ccc([C@H](C)NC(=O)[C@@H]2C[C@@H](O)CN2C(=O)[C@@H](NC(=O)CCCCCC(=O)N2CCN(c3ccc(-c4ccc(Cl)cc4)c(CN4CCN(c5ccc(C(=O)NS(=O)(=O)c6ccc(NCCCN(C)C)c(S(=O)(=O)C(F)(F)F)c6)c(Oc6cnc7[nH]ccc7c6)c5)CC4)c3)CC2)C(C)(C)C)cc1 [I-99] | > 3000 | > 30000 |

The next lines start with results.

| IC50 (MOLT-4 cells) [nM] | Compound | IC50 (Caki-2 cells) [nM] |
| --- | --- | --- |
| 100 to 1000 | Cc1ncsc1-c1ccc([C@H](C)NC(=O)[C@@H]2C[C@@H](O)CN2C(=O)[C@@H](NC(=O)CCCCCN(C)CCNc2ccc(S(=O)(=O)NC(=O)c3ccc(N4CCN(CC5=C(c6ccc(Cl)cc6)CC(C)(C)CC5)CC4)cc3Oc3cnc4[nH]ccc4c3)cc2S(=O)(=O)C(F)(F)F)C(C)(C)C)cc1 [I-77] | 10000 to 30000 |
| > 3000 | Cc1ncsc1-c1ccc([C@H](C)NC(=O)[C@@H]2C[C@@H](O)CN2C(=O)[C@@H](NC(=O)CCCCCC(=O)N(C)CCCNc2ccc(S(=O)(=O)NC(=O)c3ccc(N4CCN(Cc5ccccc5-c5ccc(Cl)cc5)CC4)cc3Oc3cnc4[nH]ccc4c3)cc2S(=O)(=O)C(F)(F)F)C(C)(C)C)cc1 [I-61] | > 30000 |
| 100 to 1000 | C#Cc1ccc([C@H](C)NC(=O)[C@@H]2C[C@@H](O)CN2C(=O)[C@@H](NC(=O)CCCCCCC(=O)N2CCN(C[C@]3(C)CCC(c4ccc(Cl)cc4)=C(CN4CCN(c5ccc(C(=O)NS(=O)(=O)c6ccc(NCCCN7CCOCC7)c(S(=O)(=O)C(F)(F)F)c6)c(Oc6cnc7[nH]ccc7c6)c5)CC4)C3)CC2)C(C)(C)C)cc1 [I-138] | 10000 to 30000 |
| 100 to 1000 | C#Cc1ccc([C@H](C)NC(=O)[C@@H]2C[C@@H](O)CN2C(=O)[C@@H](NC(=O)CCCCCC(=O)N2CCN(CCCNc3ccc(S(=O)(=O)NC(=O)c4ccc(N5CCN(CC6=C(c7ccc(Cl)cc7)CC(C)(C)CC6)CC5)cc4Oc4cnc5[nH]ccc5c4)cc3S(=O)(=O)C(F)(F)F)CC2)C(C)(C)C)c(OC)c1 [I-103] | > 30000 |
| < 100 | C#Cc1ccc(C(CO)NC(=O)[C@@H]2C[C@@H](O)CN2C(=O)[C@@H](NC(=O)CCCCCCC(=O)N2CCN(C[C@]3(C)CCC(c4ccc(Cl)cc4)=C(CN4CCN(c5ccc(C(=O)NS(=O)(=O)c6ccc(NCCCN7CCOCC7)c(S(=O)(=O)C(F)(F)F)c6)c(Oc6cnc7[nH]ccc7c6)c5)CC4)C3)CC2)C(C)(C)C)cc1 (stereo partly shown) [I-139] | > 30000 |

— patent US20260092057A1, “BCL-XL/BCL-2 DEGRADERS AND USES THEREOF” (Kymera Therapeutics, Inc., priority 2022, published 2026)
